Measurements: US20250154212A1, “METHOD OF DISRUPTING MEMORY AND LIPOPEPTIDE FOR USE IN SUCH METHOD” (The Research Foundation for The State University of New York, priority 2023, published 2025)
“Also recorded” adds a separate entry of the source. Where no end group is shown, it is not given here. The star is where a group is joined. Myristoyl = CCCCCCCCCCCCCC(=O)*

Tested on: late-LTP in CA1 st. radiatum of hippocampal slices
Test: Late-LTP recording (fEPSP) in hippocampal slices of wild-type mice
Assay type: cell-based, mouse
Settings: for effect on established late-LTP (fEPSP slope), tetanized pathway / effect on baseline synaptic transmission, untetanized pathway: wild-type mice; for effect on established late-LTP (fEPSP slope), tetanized pathway: 10 μM applied to the bath 3 h post-tetanization; for effect on baseline synaptic transmission, untetanized pathway: 10 μM in bath; for potentiation after drug washout: drug applied 3 h starting 3 h post-tetanization, then 4-h washout
Experimental: Acute mouse hippocampal slices (450 μm) were prepared as previously described (17, 73). Hippocampi from 2-6-month-old male C57/B6 or PKM ζ-null mice as previously described (17) were dissected, bathed in ice-cold dissection buffer, and sliced with a McIlwain tissue slicer in a cold room (4° C.). The dissection buffer contained (in mM): 125 NaCl, 2.5 KCl, 1.25 NaH2PO4, 26 NaHCO3, 11 glucose, 10 MgCl2, and 0.5 CaCl2), and was bubbled with 95% O2/5% CO2 to maintain pH at 7.4. After dissection the slices were immediately transferred into an Oslo-type interface recording chamber (31.5±1° C.) (73). The recording superfusate consisted of (in mM): 118 NaCl, 3.5 KCl, 2.5 CaCl2), 1.3 MgSO4, 1.25 NaH2PO4, 24 NaHCO3, and 15 glucose, bubbled with 95% O2/5% CO2, with a flow rate of 0.5 ml/min. In a subset of experiments a custom-made recirculation system employing piezoelectric pumps was used for recycling the superfusate (Bartels Mikrotechnik GmbH, Dortmund, Germany) (73).
Field EPSPs were recorded with a glass extracellular recording electrode (2-5 M (2) placed in the CA1 st. radiatum, and concentric bipolar stimulating electrodes (CBBRE75 and 30200; FHC, Bowdoin, ME) were placed on either side within CA3 or CA1. Test stimulation rate was once every 30 sec, alternating every 15 sec between stimulating electrodes. Based upon a pre-established exclusion criterion, a slice was not used if fEPSP spike threshold was <2 mV on initial input-output analysis. Pathway independence was confirmed by the absence of paired-pulse facilitation between the two pathways. A single stimulating electrode was used for PLA/immunocytochemistry with a test stimulation rate of once every 30 sec. The high-frequency stimulation, optimized to produce a relatively rapid onset of protein synthesis-dependent late-LTP (74), consisted of two 100 Hz-1 s tetanic trains, at 25% of spike threshold, spaced 20 sec apart. The maximum slope of the rise of the fEPSP was analyzed on a PC using the WinLTP data acquisition program (75).
Replicates are biological because there is only one measurement for each sample. Drug/vehicle comparisons were performed blindly. Sample sizes vary for the different experimental approaches (biochemistry, slice physiology, and behavior) and were established by power analyses based on effect size estimates from published work or preliminary experiments. The observed effect sizes for binary comparisons are reported as Cohen's d and as η^2p for ANOVA effects. Multi-factor comparisons were performed using ANOVA with repeated measures, as appropriate. Two-population Student's/tests were performed to compare protein immunofluorescence intensity between control and potentiated hippocampal slices. For LTP experiments, the responses were first normalized to the mean of the 30 min period prior to tetanization (or equivalent in control pathways), and then the means over 5 min periods were used for statistical comparisons (e.g., pre-tetanization, beginning and end of drug application). Paired Student's t tests were used to compare the change in the potentiated response at time points at the beginning and end of drug application. The degrees of freedom for the critical t values of the/tests and the F values of the ANOVAs are reported as subscripts. Post-hoc multiple comparisons were performed by Newman-Keuls tests as appropriate. Statistical significance was accepted at P<0.05 or appropriate Bonferroni correction for multiple comparisons.
Now we can test the central prediction of the KIBRA-PKMζ maintenance hypothesis that decoupling PKMζ from KIBRA reverses potentiation of activated synapses. We simultaneously recorded two independent synaptic pathways in st. radiatum within a hippocampal slice. We stimulated one pathway by high-frequency tetanization to induce late-LTP, and in the second pathway we recorded low-frequency test fEPSP responses for the equivalent time. […]

## O=S(=O)(O)c1cc(O)c2c(S(=O)(=O)O)cc(S(=O)(=O)O)cc2c1 [ζ-stat, 1-naphthol-3,6,8-trisulphonic acid]
  effect on established late-LTP (fEPSP slope), tetanized pathway: reverses late-LTP maintenance
  effect on baseline synaptic transmission, untetanized pathway: without measurably affecting synaptic transmission
Listed as z-stat
  effect on established late-LTP (fEPSP slope), tetanized pathway: reverses late-LTP
  effect on baseline synaptic transmission, untetanized pathway: no effect on baseline synaptic transmission
wild-type
  potentiation after drug washout: reversal of potentiation persisted
wild-type, listed as z-stat
  potentiation after drug washout: potentiation does not return
wild-type, first pathway, 150 min post-tetanization with drug
  effect on late-LTP when drug is present at tetanization: suppresses late-LTP
wild-type, tetanized after 1-h washout
  late-LTP in second pathway after washout: late-LTP is induced and maintained in second pathway

## myr-N-FVRNSLERRSVRMKRPS-C (Myristoyl-FVRNSLERRSVRMKRPS) [K-ZAP]
  effect on established late-LTP (fEPSP slope), tetanized pathway: reverses late-LTP maintenance
  effect on baseline synaptic transmission, untetanized pathway: no measurable effect on baseline synaptic transmission; also recorded: no effect on untetanized pathway
